The subject of data set [1] is thrombin. The conditions noted are these: prior knowledge; cited from earlier work.
The test system of data set [2] is thrombin. Conditions: literature; cited from earlier work.
Another data set deals with platelets. The experiment in a line: Thrombopenic activity after oral administration to dogs. It is filed as in vivo. The conditions noted are these: dog.
The subject of data set [3] is plasma from the dogs (TT). Nature of the data set: TT in dogs after oral administration. It is filed as in vivo. The conditions noted are these: dog.
Method: (§2) Male or female dogs weighing 11-28 kg are treated orally with the products of the invention (5 mg/kg) or with the reference substance, DUP 714, at a concentration of 2.5 mg/kg. The coagulation times (TT, ACT) are determined in samples of plasma from the dogs 10 min before and 30 min, 1 hour, 2 hours, 4 hours and 6 hours after administration of the products. […] The number of platelets is also determined in each sample using a T450 counter (Coultronics).
(§3) The values show the number of times that the initial time is increased.
Data set [4] has as its system plasma from the dogs (ACT). The experiment in a line: ACT in dogs after oral administration. It is filed as in vivo. The conditions noted are these: dog.
Method: as §2, §3
For data set [5], the system named is human plasma (thrombin time). Nature of the data set: Anticoagulant activity: thrombin time (TT) in human plasma. It is filed as biochemical. Conditions: 37° C., 2 min preincubation. The protocol: (§1) Anticoagulant activity, measurement of the thrombin time and the activated cephalin time in man In order to evaluate the anticoagulant activity of the compounds of the invention, the thrombin time (TT) and the activated cephalin time (ACT) were determined in samples of human plasma. An ST4 coagulometer (Diagnostica Stago, France) was used. […] The TT is determined with the Thrombin Prest reagent and the ACT with the Automat […] reagent. The inhibitor or the solvent (10 μl) is added to the plasma (90 μl), then the mixture is incubated for 2 minutes at 37° C. 100 μl of Thrombin […]) or of Automat […]) are added while starting the chronometer. […] The activity of an antagonist is evaluated by its capacity to prolong the TT and the ACT relative to the control.

In data set [6] the test system is human plasma (activated cephalin time). Nature of the data set: Anticoagulant activity: activated cephalin time (ACT) in human plasma. It is filed as biochemical. Conditions: 37° C., 2 min preincubation. As to the method: as §1
Another data set has as its target T1, human thrombin (Homo sapiens, UniProt P00734).
T1 construct: human thrombin (Sigma, specific activity 3230 UNIH/mg); purchased Sigma
The experiment in a line: Inhibition of human thrombin (fibrinogen to fibrin). It is filed as biochemical. Conditions: human thrombin 0.7 nM, purified human fibrinogen, 20° C., pH 7.4.

The next data set concerns the target T2, human urokinase (u-PA) (Homo sapiens, UniProt P00749).
T2 construct: purchased Sigma
The experiment in a line: Inhibition of urokinase (u-PA). The class given is biochemical. Conditions: purified human u-PA 2 nM, substrate <Glu-Gly-Arg-pNA 0.56 mM, 20° C., pH 7.4.

The next data set addresses T3, Plasmin (Homo sapiens, UniProt P00747).
T3 construct: Products Thrombin Plasmin t-PA u-PA; purchased Stage [sic]
Nature of the data set: Inhibition of plasmin. The class given is biochemical. Conditions: purified human plasmin 2 nM, substrate <Glu-Phe-Lys-pNA 0.05 mM, 20° C., pH 7.4.

For data set [7], the target named is plasminogen tissue activator (t-PA) (Homo sapiens, UniProt P00750). Nature of the data set: Inhibition of plasminogen tissue activator (t-PA). It is filed as biochemical. Conditions: t-PA 2 nM, substrate H-D-Ile-Pro-Arg-pNA 0.48 mM, 20° C., pH 7.4.
plasminogen tissue activator (t-PA), sequence (P00750 23-562 limits assumed): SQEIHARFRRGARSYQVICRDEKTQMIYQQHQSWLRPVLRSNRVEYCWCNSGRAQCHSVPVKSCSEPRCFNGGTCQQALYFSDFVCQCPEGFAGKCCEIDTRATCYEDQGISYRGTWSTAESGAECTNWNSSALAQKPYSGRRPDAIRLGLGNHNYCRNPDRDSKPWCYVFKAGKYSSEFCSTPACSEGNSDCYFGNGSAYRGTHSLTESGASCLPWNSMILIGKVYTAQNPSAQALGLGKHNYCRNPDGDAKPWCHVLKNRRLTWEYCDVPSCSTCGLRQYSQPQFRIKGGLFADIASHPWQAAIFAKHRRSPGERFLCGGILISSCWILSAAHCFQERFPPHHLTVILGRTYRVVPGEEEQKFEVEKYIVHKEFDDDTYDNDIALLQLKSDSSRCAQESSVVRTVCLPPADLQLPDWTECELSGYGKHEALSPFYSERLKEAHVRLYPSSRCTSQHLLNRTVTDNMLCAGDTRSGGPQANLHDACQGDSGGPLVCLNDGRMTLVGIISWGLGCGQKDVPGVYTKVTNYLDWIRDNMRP

The values that follow come from patent US5814622A, “Compounds derived from boronic acid” (Adir et Compagnie, priority 1996, dated 1998).

pIC50: −log10 of the molar value.

T3 sequence (P00747 581-810 limits assumed): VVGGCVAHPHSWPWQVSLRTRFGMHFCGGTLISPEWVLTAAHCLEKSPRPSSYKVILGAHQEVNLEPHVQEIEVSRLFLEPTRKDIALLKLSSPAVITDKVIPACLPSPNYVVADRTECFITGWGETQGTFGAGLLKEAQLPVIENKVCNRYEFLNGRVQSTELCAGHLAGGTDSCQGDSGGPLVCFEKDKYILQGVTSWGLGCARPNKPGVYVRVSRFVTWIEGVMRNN
T3 sequence (P00747 97-580 partner limits assumed): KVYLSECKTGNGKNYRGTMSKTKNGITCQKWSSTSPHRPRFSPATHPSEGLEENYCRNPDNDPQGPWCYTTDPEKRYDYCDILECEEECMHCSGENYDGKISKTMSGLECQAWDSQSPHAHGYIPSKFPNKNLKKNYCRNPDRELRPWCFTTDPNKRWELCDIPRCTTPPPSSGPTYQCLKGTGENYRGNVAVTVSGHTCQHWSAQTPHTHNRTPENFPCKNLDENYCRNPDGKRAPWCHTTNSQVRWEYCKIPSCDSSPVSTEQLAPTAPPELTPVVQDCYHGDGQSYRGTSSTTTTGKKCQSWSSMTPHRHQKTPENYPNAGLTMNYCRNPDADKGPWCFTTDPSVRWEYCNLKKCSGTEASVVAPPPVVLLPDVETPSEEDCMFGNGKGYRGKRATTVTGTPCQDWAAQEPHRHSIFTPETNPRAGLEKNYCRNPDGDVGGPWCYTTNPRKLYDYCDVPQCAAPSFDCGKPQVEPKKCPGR
Method for platelets: Male or female dogs weighing 11-28 kg are treated orally with the products of the invention (5 mg/kg) or with the reference substance, DUP 714, at a concentration of 2.5 mg/kg. […] The number of platelets is also determined in each sample using a T450 counter (Coultronics).
Under the conditions of our experiments, the number of platelets before the treatment is about 300,000 platelets/μl; the TT is about 19 seconds and the ACT is about 18 seconds.

As for “hirulog-1: Direct inhibitors of thrombin, currently in clinical development [reference compound]”, in the data set on thrombin [1], the “activity via the oral route, in words” value was “not being active via the oral route”.
Consider hirudin, for which the “activity via the oral route, in words” value in the data set on thrombin [1] is “not being active via the oral route”.
Regarding `CC(=O)N[C@H](Cc1ccccc1)C(=O)N1CCC[C@H]1C(=O)N[C@@H](CCCNC(=N)N)B(O)O` [DUP 714, Ac-(D)Phe-Pro-Arg boronic acid, reference compound], the “thrombin inhibition, in words” value in the data set with thrombin [2] was “thrombin inhibitor”. In the data set with platelets (2.5 mg/kg), the “effect on number of platelets, in words” value is “lowers the number of platelets appreciably and reversibly”. Further, in the data set on platelets (2.5 mg/kg, 1 hour), the “Thrombopenias observed 1 hour after oral administration to dogs” value is on record as 55% and the “fall in number of platelets” value was 55±14%. Moreover, the “increase of TT in animals, in words” value in data set [3] is recorded as “appreciably increase”. Moreover, the “increase of ACT in animals, in words” value in data set [4] was “appreciably increase”.
As usually defined, the pIC50 is −log10 of the IC50, conventionally taken in molar units. Lower therefore signals a large IC50. `Cl.N=C(N)NCCC[C@H](NC(=O)c1ccc(C23CCC(O)(CC2)CC3)cc1)B(O)O` [Ex. 12, 1-(R)-[4-(4-Hydroxybicyclo[2.2.2]oct-1-yl)benzoylamino]-4-guanidinobutylboronic acid hydrochloride]: the “TT Ctt2 (concentration which multiplies the coagulation time by 2)” value in data set [5] was determined as 0.18 µM. Also, in [6], the “ACT Ctt2 (concentration which multiplies the coagulation time by 2)” value worked out at 0.78 µM. The “Thrombopenias observed 1 hour after oral administration to dogs” value with platelets (5 mg/kg, 1 hour) is recorded as 40%. For the same compound, the “Increase in TT (number of times that the initial time is increased), 1 hour” value in data set [3] (5 mg/kg, 1 hour) turned out to be 24 times. The “Increase in TT (number of times that the initial time is increased), 4 hours” value in data set [3] (5 mg/kg, 4 hours) was determined as 19 times. The pIC50 was 8.18 at human thrombin, 4.81 at human urokinase (u-PA), 5.68 against Plasmin and 7.03 in [7]. For the same compound, the “Increase in ACT (number of times that the initial time is increased), 1 hour” value in data set [4] (5 mg/kg, 1 hour) is above 30 times. For the same compound, in data set [4] (5 mg/kg, 4 hours), the “Increase in ACT (number of times that the initial time is increased), 4 hours” value is above 30 times.
